Data: patent US20060014723A1, “Anti-parasitic uses of borinic acid complexes” (priority 2004, published 2006)
Converted amounts (≈) assume the structure as drawn.

Legend:
[1] = test system: Leishmania donovani strain MHOM/ET1671L82; test: Leishmaniasis in vitro screening model (axenic amastigotes, Alamar Blue); type: cell-based; details: for IC50: Leishmania donovani, read-out: L. donovani IC50
Protocol: The Leishmania donovani strain MHOM/ET1671L82 (obtained from Dr. S. Croft, London School of Hygiene and Tropical Medicine) is used. The strain is maintained in the Syrian Golden hamster. Amastigotes are collected from the spleen of an infected hamster. Amastigotes are grown in axenic culture at 37° C. in SM medium (Cunningham I., J. Protozoal. 24:325-329, 1977) at pH 5.4 supplemented with 10% heat-inactivated fetal bovine serum (FBS) under an atmosphere of 5% CO2 in air.
(§1) After use the stocks are kept at −20° C. For the assays, the compound is further diluted to the appropriate concentration using complete medium.
Assays are performed in 96-well flat-bottom microtiter plates (Costar, Corning Inc.), each well containing 100 μl of culture medium with 105 amastigotes from axenic culture with or without a serial drug dilution. Concentration of amastigotes is determined in a CASY cell analyzing system (Scharfe System, Reutlingen, Germany). Before the amastigotes are counted, the parasite culture is passed twice through a 22-gauge needle to break up clusters of amastigotes.
The highest concentration for the test compounds is 90 μg/mL. Seven 3-fold dilutions are used, covering a range from […]. Each drug is tested in duplicate. Active compounds are tested twice for confirmation. After 72 hours of incubation, the plates are inspected under an inverted microscope to assure growth of the controls and sterile conditions.
(§2) Ten μL of Alamar Blue (12.5 mg resazurin dissolved in 100 mL distilled water) are then added to each well and the plates are incubated for another 2 hours. Then the plates are read with a Spectramax GEMINI XS microplate fluorometer (Molecular Devices Cooperation, Sunnyvale, Calif., USA) using an excitation wave length of 536 nm and an emission wave length of 588 nm.
Data are analyzed using the microplate reader software Softmax Pro (Molecular Devices Cooperation, Sunnyvale, Calif., USA). Decrease of fluorescence (i.e. inhibition) is expressed as percentage of the fluorescence of control cultures and plotted against the drug concentrations. The IC50 value is calculated from the sigmoidal inhibition curve by the software program.

P. falciparum K1 = test: Malaria in vitro screening model (3H-hypoxanthine incorporation); type: cell-based, Plasmodium falciparum; details: for IC50: Plasmodium falciparum, K1
Protocol: […] P. falciparum K1 is used in this study. K1 (a clone originating from Thailand) is resistant to chloroquine and pyrimethamine. The strains are maintained in RPMI 1640 medium with 0.36 mM hypoxanthine, supplemented with 25 mM N 2-hydroxyethyipiperazine-N-2-ethane-sulphonic acid (HEPES), 25 mM NaHCO3, neomycin (100 U/mL) and 5 g/L of ALBUMAX® II (lipid-rich bovine serum albumin, GIBCO, Grand Island, N.Y., USA), together with 5% washed human A+ erythrocytes. All cultures and assays are conducted at 37° C. under an atmosphere of 4% CO2, 3% O2 and 93% N2. Cultures are kept in incubation chambers filled with the gas mixture. Subcultures are diluted to a parasitemia of between 0.1 and 0.5% and the medium is changed daily.
Antimalarial activity is assessed using an adaptation of the procedures described by Desjardins et al. (Antimicrob. Agents Chemother. 16:710-718, 1979), and Matile and Pink (In: Lefkovits, I. and Pernis, B. (Eds.), Immunological Methods Vol. IV, Academic Press, San Diego, pp. 221-234, 1990).
Stock drug solutions are prepared in 100% dimethylsulfoxide (DMSO) at 10 mg/mL, and heated or sonicated if necessary to dissolve the sample. After use, the stocks are kept at −20° C. For the assays, the compound is further diluted in serum-free culture medium and finally to the appropriate concentration in complete medium without hypoxanthine.
Assays are performed in sterile 96-well microtiter plates, each well containing 200 μl of parasite culture (0.15% parasitemia, 2.5% hematocrit) with or without serial drug solutions. Seven 2-fold dilutions are used, covering a range from […] to 0.078 μg/mL. For active compounds the highest concentration is lowered (e.g., to […]); for plant extracts the highest concentration is increased to 50 μg/mL. […] After 48 hours of incubation at 37° C., 0.5 μCi ^3H-hypoxanthine is added to each well. Cultures are incubated for a further 24 h before being harvested onto glass-fiber filters and washed with distilled water. The radioactivity is counted using a Betaplate liquid scintillation counter (Wallac, Zurich, Switzerland). The results are recorded as counts per minute per well at each drug concentration and expressed as percentage of the untreated controls. IC50 values are calculated from the sigmoidal inhibition curves using Microsoft EXCEL.

[2] = test system: Trypanosoma cruzi Tulahuen C2C4 strain; test: Chagas disease in vitro screening model (beta-galactosidase strain in L-6 cells); type: cell-based; details: for IC50: Trypanosoma cruzi, TULAHUEN, L6, read-out: T. cruzi IC50
Protocol: Trypanosoma cruzi Tulahuen C2C4 strain, containing the β-galactosidase (Lac Z) gene (Buckner et al., Antimicrob. Agents Chemother 40:2592-2597, 1996) is used for this study.
The infective amastigote and trypomastigote stages are cultivated in L-6 cells (a rat skeletal myoblast cell line) in RPMI 1640 medium supplemented with 2 mM L-glutamine and 10% heat-inactivated fetal bovine serum in 12.5 cm^2 tissue culture flasks. Amastigotes develop intracellularly, differentiate into trypomastigotes, and leave the host cell. These trypomastigotes infect new L-6 cells and are the stages used to initiate an infection in the assay. All cultures and assays are conducted at 37° C. under an atmosphere of 5% CO2 in air.
as §1
Assays are performed in sterile 96-well microtiter plates, each well containing 100 μl medium with 2×10^3 L-6 cells. After 24 hours, […] of a trypanosome suspension containing 5×10^3 trypomastigote bloodstream forms from culture are added to the wells. Forty-eight hours later, the medium is removed from the wells and replaced by […] fresh medium, with or without a serial drug dilution. At this point the L-6 cells should be infected with amastigotes and no free trypomastigotes should be in the medium. Seven 3-fold drug dilutions are used, covering a range from 90 μg/mL to 0.123 μg/mL. Each drug is tested in duplicate. Active compounds are tested twice for confirmation. After 96 hours of incubation the plates are inspected under an inverted microscope to assure growth of the controls and sterility.
Then the substrate CPRG/Nonidet (50 μl) is added to all wells. A colour reaction will become visible within 2-6 hours and can be read photometrically at 540 nm. Data are transferred into a graphics program (e.g., EXCEL), sigmoidal inhibition curves determined and IC50 values calculated.

[3] = test system: T. b. rhodesiense STIB 900; test: African sleeping sickness in vitro screening model (Alamar Blue); type: cell-based, Trypanosoma brucei rhodesiense; details: for IC50: Trypanosoma brucei
Protocol: Bloodstream from trypomastigotes of the strains (a) and (c) are maintained in Minimal Essential Medium (MEM) with Earle's salts supplemented according to Baltz, et al., (EMBO J. 4:1273-1277, 1985) with 25 mM N-2-hydroxyethylpiperazine-N′-2-ethane-sulphonic acid (HEPES), 1 g/L additional glucose, 1% MEM non-essential amino acids (100×), 0.2 mM 2-mercaptoethanol, 2 mM sodium pyruvate, 0.1 mM hypoxanthine and 15% heat-inactivated horse serum.
All cultures and assays are conducted at 37° C. under an atmosphere of 5% CO2 in air.
After use the stocks are kept at −20° C. For the assays, the compound is further diluted in serum-free culture medium and finally to the appropriate concentration in complete medium without hypoxanthine.
Assays are performed in 96-well microtiter plates, each well containing 100 μL of culture medium with 8×10^3 bloodstream forms with or without a serial drug dilution. The highest concentration for the test compounds is 90 μg/mL. Seven 3-fold drug dilutions are used, covering a range from 90 μg/mL to 0.123 μg/mL. Each drug is tested in duplicate. Active compounds are tested twice for confirmation. The final result is the mean of the four individual IC50 values. After 72 hrs of incubation, the plates are inspected under an inverted microscope to assure growth of the controls and sterile conditions.
as §2, with “are now” for “are then”, “excitation wavelength” for “excitation wave length”
IC50 values are determined using the microplate reader software Softmax Pro (Molecular Devices Cooperation, Sunnyvale, Calif., USA).

| SMILES | IC50 [1] [µg/mL] | IC50 (P. falciparum K1) [µg/mL] | IC50 [2] [µg/mL] | IC50 [3] [µg/mL] | L. donovani IC50 [1] [µg/mL] | P. falciparum IC50 (P. falciparum K1) [µg/mL] | T. cruzi IC50 [2] [µg/mL] | T. b. rhodesiense IC50 [3] [µg/mL] |
| --- | --- | --- | --- | --- | --- | --- | --- | --- |
| CC1(C)COC(c2cccc(B(Oc3cccc4cccnc34)C3CC3)c2)=N1 [Compound 20, Cyclopropyl[3-(4,5-dihydro-4,4-dimethyloxazol-2yl)phenyl]borinic acid quinolin-8-yl ester] | 0.55 (≈ 1.49 µM) | 1.84 (≈ 4.97 µM) | 0.86 (≈ 2.32 µM) | 0.245 (≈ 0.662 µM) | – | – | – | – |
| Fc1cccc(B(Oc2cccc3cccnc23)c2cccc(Cl)c2)c1 [Compound 17, (3-Chlorophenyl)(3-fluorophenyl)borinic acid quinolin-8-yl ester] | 0.42 (≈ 1.16 µM) | 1.77 (≈ 4.89 µM) | 1.06 (≈ 2.95 µM) | 0.18 (≈ 0.498 µM) | – | – | – | – |
| O=C(OB(c1cccc(Cl)c1)c1cccc(Cl)c1)c1ncccc1OCCN1CCOCC1 [Compound 77] | – | – | – | – | 1.1 | 1.225 | 5.15 | 17.2 |
| O=C(OB(c1ccc(Cl)cc1)c1ccc(Cl)cc1)c1ncccc1OCCN1CCOCC1 [Compound 76] | – | – | – | – | 2 | 3.81 | 4.05 | 19.8 |
| N#Cc1ccc(B(Oc2cccc3cccnc23)c2cc(F)cc(C(F)(F)F)c2)cc1 [Compound 122] | – | – | – | – | 0.45 | 4.577 | 4.55 | 0.4 |
| CN(C)Cc1ccc(B(Oc2cccc3cccnc23)c2ccc(C#N)cc2)cc1 [Compound 125] | – | – | – | – | 0.38 | 4.973 | 4.9 | 0.5 |
| Fc1cc(B(Oc2cccc3cccnc23)c2cccc(Cl)c2)cc(C(F)(F)F)c1 [Compound 123] | – | – | – | – | 0.54 | 3.51 | 4 | 0.31 |
| Cc1ccc(B(Oc2cccc3cccnc23)c2ccccc2)cc1Cl [Compound 10, (3-Chloro-4-methylphenyl)phenylborinic acid quinolin-8-yl ester] | 0.38 (≈ 1.06 µM) | 1.5 (≈ 4.19 µM) | 4.2 (≈ 11.7 µM) | 0.52 (≈ 1.45 µM) | – | – | – | – |
| Cc1ccc(B(OC(=O)c2ncccc2O)c2ccc(C)c(Cl)c2)cc1Cl [Compound 69] | – | – | – | – | 0.22 | 2.449 | 3.35 | 16.5 |
| CN(C)Cc1ccc(B(Oc2cccc3cccnc23)c2cc(F)cc(C(F)(F)F)c2)cc1 [Compound 120] | – | – | – | – | 0.44 | 2.794 | 4.9 | 0.42 |
| Fc1cccc(B(Oc2cccc3cccnc23)c2ccc(Cl)cc2)c1F [Compound 42, (4-Chlorophenyl)(2,3-difluorophenyl)borinic acid quinolin-8-yl ester] | 0.43 (≈ 1.13 µM) | 1.83 (≈ 4.82 µM) | 1.04 (≈ 2.75 µM) | 0.47 (≈ 1.24 µM) | – | – | – | – |
| Cc1cc(B(Oc2cccc3cccnc23)c2ccc(C#N)cc2)ccc1Cl [Compound 34, (4-Chloro-3-methylphenyl)(4-cyanophenyl)borinic acid quinolin-8-yl ester] | 0.07 (≈ 0.183 µM) | 1.39 (≈ 3.63 µM) | 0.82 (≈ 2.14 µM) | 0.23 (≈ 0.601 µM) | – | – | – | – |
| Fc1ccc(F)c(B(Oc2cccc3cccnc23)c2ccc(Cl)cc2)c1 [Compound 40, (4-Chlorophenyl)(2,5-difluorophenyl)borinic acid quinolin-8-yl ester] | 0.59 (≈ 1.55 µM) | 1.72 (≈ 4.53 µM) | 0.89 (≈ 2.34 µM) | 0.295 (≈ 0.777 µM) | – | – | – | – |
| Cc1cc(B(Oc2cccc3cccnc23)c2cccc(C#N)c2)ccc1Cl [Compound 31, (4-Chloro-3-methylphenyl)(3-cyanophenyl)borinic acid quinolin-8-yl ester] | 0.83 (≈ 2.17 µM) | 1.83 (≈ 4.78 µM) | 0.79 (≈ 2.06 µM) | 0.28 (≈ 0.732 µM) | – | – | – | – |
| Fc1cc(F)cc(B(Oc2cccc3cccnc23)c2ccc(Cl)cc2)c1 [Compound 44, (4-Chlorophenyl)(3,5-difluorophenyl)borinic acid quinolin-8-yl ester] | 0.5 (≈ 1.32 µM) | 1.87 (≈ 4.93 µM) | 0.71 (≈ 1.87 µM) | 0.275 (≈ 0.724 µM) | – | – | – | – |
| Fc1cccc(B(Oc2cccc3cccnc23)c2ccc(Cl)c(C(F)(F)F)c2)c1 [Compound 115] | – | – | – | – | 0.59 | 3.077 | 3.6 | 0.465 |
| N#Cc1cccc(B(Oc2cccc3cccnc23)c2cccc(F)c2)c1 [Compound 29, (3-Cyanophenyl)(3-fluorophenyl)borinic acid quinolin-8-yl ester] | 0.4 (≈ 1.14 µM) | 1.83 (≈ 5.2 µM) | 0.68 (≈ 1.93 µM) | 0.33 (≈ 0.937 µM) | – | – | – | – |
